Data on three molecules can be found in ChEMBL document CHEMBL5729018, “MAPK inhibitors” (2022).

The term Ki denotes a dissociation constant, usually derived from enzyme kinetics or from competition with a known ligand. One may read the IC50 as the concentration needed to halve the response being measured. A low value points to greater potency.

The structures appear in SMILES notation.

Assay [1] concerns the target T1, Mitogen-activated protein kinase 14 (Homo sapiens, UniProt Q16539). Briefly: (§1) Fluorescence polarisation (FP) assay for active p38alpha MARK: FP signals were measured with a PHERAstar microplate reader (BMG Labtech) using black, low-binding half-area 96 well plates (Corning). Each binding data point was carried out in duplicate or triplicate. Data were recorded in millipolarisation (mP) units and measured at an excitation wavelength of 485 nm and an emission wavelength of 520 nm. Tris(hydroxymethyl)aminomethane (Tris) assay buffer was used in all binding experiments and consisted of 10 mM Tris, […], and 3.5 mM 3-((3-cholamidopropyl)dimethylammonium)-1-propanesulfonate (Chaps) at pH 8.0. The recombinant active His-tag p38α MAPK used in the ligand binding assays were prepared as described by Bukhtiyarova et al. A general note: Polarisation of emitted light reports the rotation of a fluorescent probe.

The target in assay [2] is T1, Mitogen-activated protein kinase 14. Put plainly: Each binding data point was carried out in duplicate or triplicate. Data were recorded in millipolarisation (mP) units and measured at an excitation wavelength of 485 nm and an emission wavelength of 520 nm. Tris(hydroxymethyl)aminomethane (Tris) assay buffer was used in all binding experiments and consisted of 10 mM Tris, 50 nM potassium chloride, and 3.5 mM 3-((3-cholamidopropyl)dimethylammonium)-1-propanesulfonate (Chaps) at pH 8.0.

Assay [3] has the same target. The description is as §1, with “assay:” for “assay for active p38alpha MARK:”, “8.0.” for “8.0. The recombinant active His-tag p38α MAPK used in the ligand binding assays were prepared as described by Bukhtiyarova et al.”.

T1 sequence (Q16539 whole entry): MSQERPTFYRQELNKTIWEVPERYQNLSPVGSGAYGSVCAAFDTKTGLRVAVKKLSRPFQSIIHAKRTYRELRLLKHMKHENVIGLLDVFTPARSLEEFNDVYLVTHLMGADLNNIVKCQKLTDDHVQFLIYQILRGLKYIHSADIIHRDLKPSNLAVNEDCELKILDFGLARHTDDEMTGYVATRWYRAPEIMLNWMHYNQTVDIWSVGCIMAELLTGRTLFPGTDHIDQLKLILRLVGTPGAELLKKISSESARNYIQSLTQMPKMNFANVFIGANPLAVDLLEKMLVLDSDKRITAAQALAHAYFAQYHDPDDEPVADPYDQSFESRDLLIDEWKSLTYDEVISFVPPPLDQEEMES

For the molecule `OCC#Cc1cc(-c2ccncc2)c(-c2ccc(F)cc2)s1`, the figures for the inhibitory constant (Ki) in assay [1] and in assay [2] were 630 nM and 2100 nM, respectively.

`OCCC#Cc1cc(-c2ccncc2)c(-c2ccc(F)cc2)s1`: the results for the inhibition constant (Ki) in assay [1] and in assay [2] were 560 nM and 2000 nM, respectively. The same molecule had a half-inhibitory concentration (IC50) in assay [3] of 160 nM.

In assay [3], `OCCC#Cc1nc(-c2ccc(F)cc2)c(-c2ccncc2)n1CCCc1ccccc1` [RWJ-67657] showed an IC50 of 30 nM.
